The values that follow come from US5610174A, “Use of α1A -selective adrenoceptor agonists for the treatment of urinary incontinence” (priority 1995, dated 1997).

Like-named read-outs stand apart in the source and are kept apart here.

Experiment [1] concerns the target T1, human 5-HT1F receptor (Homo sapiens, UniProt P30939).
T1 construct: expressed in transfected cells; host or cells: LM(tk-) clonal cell line, designated L-5-HT1F, ATCC CRL 10957 (cell lysates)
T1 sequence (P30939 1-366): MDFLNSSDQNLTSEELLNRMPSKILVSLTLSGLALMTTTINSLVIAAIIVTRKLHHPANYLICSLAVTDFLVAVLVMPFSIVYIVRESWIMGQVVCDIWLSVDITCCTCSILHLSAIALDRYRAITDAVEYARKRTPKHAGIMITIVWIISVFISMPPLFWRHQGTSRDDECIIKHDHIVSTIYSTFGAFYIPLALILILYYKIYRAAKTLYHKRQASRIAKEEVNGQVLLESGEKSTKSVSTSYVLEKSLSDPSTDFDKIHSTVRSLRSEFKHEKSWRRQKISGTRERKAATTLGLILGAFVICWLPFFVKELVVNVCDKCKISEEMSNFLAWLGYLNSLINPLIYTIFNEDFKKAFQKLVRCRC
Put plainly: Radioligand binding at human 5-HT1F. The method, then: (§1) Human Serotonin Receptors
(§2) 5-HT1Dα, 5-HT1Dβ, 5-HT1E, 5-HT1F, and 5-HT7 Receptors: The cell lysates of LM(tk-) clonal cell line stably transfected with the genes encoding each of these 5-HT receptor-subtypes were prepared as described above. The cell line for the 5-HT1Dαreceptor, designated as Ltk-8-30-84, was deposited on Apr. […] The cell for the 5-HT1Dβ receptor, designated as Ltk-11, was deposited on Apr. […] The cell line for the 5-HT1E receptor, designated 5-HT1E -7, was deposited on Nov. […] The cell line for the 5-HT1F receptor, designated L-5-HT1F, was deposited on Dec. […] The cell line for the 5-HT7 receptor, designated as L-5-HT-4B, was deposited on Oct. […] These preparations were suspended in 50 mM Tris-HCl buffer (pH 7.4 at 37° C.) containing 10 mM MgCl2, 0.2 mM EDTA, 10 μM pargyline, and 0.1% ascorbate. […] Nonspecific binding was determined in the presence of 10 μM serotonin. The bound radioligand was separated by filtration through GF/B filters using a cell harvester.

The target of experiment [2] is T2, human 5-HT1A receptor (Homo sapiens, UniProt P08908).
T2 construct: expressed in transfected cells; host or cells: COS-7, transient (a cell line 5-HT1A-3, ATCC CRL 11889, is also named)
T2 sequence (P08908 1-422): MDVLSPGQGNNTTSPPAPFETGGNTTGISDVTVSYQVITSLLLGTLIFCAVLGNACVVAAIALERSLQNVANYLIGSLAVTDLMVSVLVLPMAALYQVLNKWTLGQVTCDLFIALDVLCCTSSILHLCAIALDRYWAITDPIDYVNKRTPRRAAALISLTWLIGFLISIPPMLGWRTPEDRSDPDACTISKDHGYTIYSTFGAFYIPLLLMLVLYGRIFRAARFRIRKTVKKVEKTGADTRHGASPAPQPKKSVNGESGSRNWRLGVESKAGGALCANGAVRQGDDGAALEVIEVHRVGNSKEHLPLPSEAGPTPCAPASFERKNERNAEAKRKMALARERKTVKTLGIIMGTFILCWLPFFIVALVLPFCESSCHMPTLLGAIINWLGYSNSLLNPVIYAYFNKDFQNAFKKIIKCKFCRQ
Put plainly: Radioligand binding at human 5-HT1A. As to the method:
The cDNA corresponding to the 5-HT1A receptor open reading frames and variable non-coding 5'- and 3'-regions, was cloned into the eukaryotic expression vector pCEXV-3. These constructs were transfected transiently into COS-7 cells by the DEAE-dextran method, and harvested after 72 hours. Radioligand binding assays were performed as described above for the 5-HT2 receptor, except that [3H]-8-OH-DPAT was used as the radioligand and nonspecific binding was determined by the addition of 10 μM mianserin.

Experiment [3] deals with T3, human 5-HT1Dβ receptor (Homo sapiens, UniProt P28222).
T3 construct: expressed in transfected cells; host or cells: LM(tk-) clonal cell line, designated Ltk-11, ATCC CRL 10422 (cell lysates)
T3 sequence (P28222 whole entry): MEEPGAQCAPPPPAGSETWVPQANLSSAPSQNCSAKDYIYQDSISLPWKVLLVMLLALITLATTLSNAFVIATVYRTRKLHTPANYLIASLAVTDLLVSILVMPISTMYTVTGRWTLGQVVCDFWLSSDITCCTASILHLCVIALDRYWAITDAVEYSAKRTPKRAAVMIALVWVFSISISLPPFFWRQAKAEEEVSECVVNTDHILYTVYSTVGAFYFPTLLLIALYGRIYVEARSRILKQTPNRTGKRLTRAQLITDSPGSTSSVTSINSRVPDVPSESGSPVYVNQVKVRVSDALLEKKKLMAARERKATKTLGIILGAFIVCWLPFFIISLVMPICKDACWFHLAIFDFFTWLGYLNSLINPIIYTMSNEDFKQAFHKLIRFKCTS
Kind of experiment: Radioligand binding at human 5-HT1Dβ. The method, then:
as §1, §2

Experiment [4] addresses T4, human α2A adrenoceptor (Homo sapiens, UniProt P08913).
T4 construct: expressed in transfected cells; host or cells: LM(tk-)
T4 sequence (P08913 1-465): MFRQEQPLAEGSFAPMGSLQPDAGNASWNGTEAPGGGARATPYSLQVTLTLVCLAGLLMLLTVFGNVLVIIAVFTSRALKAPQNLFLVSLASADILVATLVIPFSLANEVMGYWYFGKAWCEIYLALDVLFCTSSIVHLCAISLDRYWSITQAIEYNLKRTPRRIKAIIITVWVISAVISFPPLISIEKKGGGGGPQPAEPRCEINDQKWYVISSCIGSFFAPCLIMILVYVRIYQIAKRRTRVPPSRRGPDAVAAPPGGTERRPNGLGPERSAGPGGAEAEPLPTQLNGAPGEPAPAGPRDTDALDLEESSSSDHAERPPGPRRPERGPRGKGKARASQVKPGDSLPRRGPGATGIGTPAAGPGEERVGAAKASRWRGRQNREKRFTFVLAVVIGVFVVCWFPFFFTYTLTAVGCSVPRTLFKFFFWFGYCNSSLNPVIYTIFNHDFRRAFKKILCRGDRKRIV
Kind of experiment: Radioligand binding ([3H]rauwolscine) at cloned human α2A. The method, then:
To determine the affinity of compounds at the α2 receptors, LM(tk-) cell lines stably transfected with the genes encoding the α2A, α2B, and α2C receptors were used. Cell lysates were prepared as described above (see Radioligand Binding Assays), and suspended in 25 mM glycylglycine buffer (pH 7.6 at room temperature). Equilibrium competition binding assays were performed using [^3 H] rauwolscine (0.5 nM), and nonspecific binding was determined by incubation with 10 μM phentolamine. The bound radioligand was separated by filtration through GF/B filters using a cell harvester.

Where [5] appears, read: Table 3, agonists, read-out: pKi α2A (converted).

Consider `CS(=O)(=O)Nc1c(O)ccc2c1CCCC2C1=NCCN1` (racemic) [Compound A-61603, (±)-N-[5-(4,5-Dihydro-1H-imidazol-2-yl)-2-hydroxy-5,6,7,8-tetra-hydronaphthalen-1-yl]methanesulfonamide], for which the Ki was 5010 nM in experiment [1] ([3H]serotonin, read-out: pKi 5-HT1F (converted)); 3980 nM in experiment [2] ([3H]-8-OH-DPAT, read-out: pKi 5-HT1A (converted)); 6310 nM in experiment [3] ([3H]serotonin, read-out: pKi 5-HT1Dβ (converted)).

Consider `COc1ccc(OC)c(C(O)CN)c1` (racemic) [ST-1059, (±)-2-Amino-1-(2, 5 dimethoxyphenyl) ethanol], for which the Ki in experiment [4] (setting [5]) was 2000 nM.

Turning to `COc1ccc(SC)c2c1C[C@@H]1[C@@H](C2)OCCN1C` (relative stereo) [SDZ NVI-085, (±)-trans-4-Methyl-6-methoxy-9-thiomethoxy-3,4,4a, 5,10,10a-hexahydro-2H-naphtho[2,3-b][1,4]oxazine], the Ki in experiment [1] was 100 nM; in experiment [2], 79.4 nM; in experiment [3] it was 20 nM; in experiment [4] it was 50.1 nM.

Regarding `CN[C@@H](C)[C@H](O)c1ccccc1` [(-)-ephedrine], the Ki in experiment [4] (setting [5]) was 794 nM.

Turning to `C[C@H](N)[C@H](O)c1ccccc1` [(-)-norephedrine], the Ki in experiment [4] (setting [5]) was 501 nM.

Take `CNCCc1ccc(O)c(NS(C)(=O)=O)c1` [SK&F 102652]: in experiment [1] ([3H]serotonin), the “pKi 5-HT1F” value is given as 5.3. The “pKi 5-HT1A” value in experiment [2] ([3H]-8-OH-DPAT) came to 5.8. The “pKi 5-HT1Dβ” value in experiment [3] ([3H]serotonin) was determined as 5.5. The “pKi α2A” value in experiment [4] (Table 3, agonists) turned out to be 6.4.
